How the values were obtained:
[1] = tested on: Aspergillus flavus CCM 8363; test: Antifungal microdilution broth (EUCAST), AFla; format: cell-based; settings: read after 24 h; read-out: AFla MIC
[2] = tested on: Candida tropicalis CCM 8264 (ATCC 750); test: Antifungal microdilution broth (EUCAST), CT; format: cell-based; settings: read after 24 h; read-out: CT MIC
[3] = tested on: Staphylococcus aureus subsp. aureus methicillin-resistant (MRSA) CCM 4750 (ATCC 43300); test: Antibacterial microdilution broth (EUCAST), MRSA; format: cell-based; settings: read after 24 h; read-out: MRSA MIC
[4] = tested on: Mycobacterium tuberculosis H37Ra ITM-M006710 (ATCC 9431); test: Microplate Alamar Blue Assay (MABA), Mtb H37Ra; format: cell-based; settings: MABA, Middlebrook 7H9 broth pH 6.6, resazurin after 120 h
[5] = tested on: Staphylococcus aureus subsp. aureus CCM 4223 (ATCC 29213); test: Antibacterial microdilution broth (EUCAST), SA; format: cell-based; settings: read after 24 h; read-out: SA MIC
[6] = tested on: Escherichia coli CCM 3954 (ATCC 25922); test: Antibacterial microdilution broth (EUCAST), EC; format: cell-based; settings: read after 24 h; read-out: EC MIC
[7] = tested on: Candida albicans CCM 8320 (ATCC 24433); test: Antifungal microdilution broth (EUCAST), CA; format: cell-based; settings: read after 24 h; read-out: CA MIC
[8] = tested on: Pseudomonas aeruginosa CCM 3955 (ATCC 27853); test: Antibacterial microdilution broth (EUCAST), PA; format: cell-based; settings: read after 24 h
[9] = tested on: Trichophyton interdigitale CCM 8377 (ATCC 9533); test: Antifungal microdilution broth (EUCAST), TI; format: cell-based; settings: read after 72 h
[10] = tested on: Candida krusei CCM 8271 (ATCC 6258); test: Antifungal microdilution broth (EUCAST), CK; format: cell-based; settings: read after 24 h; read-out: CK MIC
[11] = tested on: Aspergillus fumigatus ATCC 204305; test: Antifungal microdilution broth (EUCAST), AF; format: cell-based; settings: read after 24 h; read-out: AF MIC
[12] = tested on: Klebsiella pneumoniae CCM 4415 (ATCC 10031); settings: 24 h
[13] = tested on: Enterococcus faecalis CCM 4224 (ATCC 29212); test: Antibacterial microdilution broth (EUCAST), EF; format: cell-based; settings: read after 24 h; read-out: EF MIC
[14] = tested on: M. aurum DSM 43999 (ATCC 23366); test: Microplate Alamar Blue Assay (MABA), M. aurum; format: cell-based; settings: MABA, resazurin after 72 h
[15] = tested on: Lichtheimia corymbifera CCM 8077; test: Antifungal microdilution broth (EUCAST), LC; format: cell-based; settings: read after 24 h; read-out: LC MIC
[16] = tested on: Candida parapsilosis CCM 8260 (ATCC 22019); test: Antifungal microdilution broth (EUCAST), CP; format: cell-based; settings: read after 24 h; read-out: CP MIC
[17] = tested on: Acinetobacter baumannii DSM 30007 (ATCC 19606); test: Antibacterial microdilution broth (EUCAST), ACI; format: cell-based; settings: read after 24 h; read-out: ACI MIC
[18] = tested on: Mycobacterium smegmatis DSM 43465 (ATCC 607); test: Microplate Alamar Blue Assay (MABA), M. smegmatis; format: cell-based; settings: MABA, resazurin after 48 h

COC(=O)c1nccnc1NC(=O)c1ccccc1 [Compound 1e] showed an MIC [1] greater than 500 µM, an MIC [2] greater than 500 µM and an MIC [3] greater than 500 µM. The “Mtb H37Ra MIC” value [4] was no less than 500 µg/mL, the MIC [5] was greater than 500 µM and the MIC [6] was greater than 500 µM. For the same molecule, the MIC [7] was greater than 500 µM, the “PA MIC” value [8] was greater than 500 µM and the “TI MIC” value [9] was greater than 500 µM. For the same molecule, the MIC [10] was greater than 500 µM, the MIC [11] was greater than 500 µM and the “KP MIC” value [12] was greater than 500 µM. For the same molecule, the MIC [13] was greater than 500 µM, the “M. aurum MIC” value [14] was 250 µg/mL and the MIC [15] was greater than 500 µM. The MIC [16] was greater than 500 µM, the MIC [17] was greater than 500 µM and the “M. smegmatis MIC” value [18] was 125 µg/mL.

Reference: article PMC9687610, “Adenosine-Mimicking Derivatives of 3-Aminopyrazine-2-Carboxamide: Towards Inhibitors of Prolyl-tRNA Synthetase with Antimycobacterial Activity” (Biomolecules, 2022)
